Like-named read-outs stand apart in the source and are kept apart here. *1 amine or outer side, *2 acyl side, *3 side chain or, on linkers, in order; H or OH if unused. Where a SMILES comes first, the peptide text is derived from it. Where no end group is shown, it is not given here. Cysteamide = C(CS[*:3])N[*:1]
What was measured:
[1] = molecular target: Adeno-associated virus AAV-2 encoding green fluorescent protein (adeno-associated virus serotype 2) (UniProt P03135); test: cell-based or functional assay
HepG2 cells [2] = test: AAV-2 transfection of HepG2 cells with TAT-HA2 or LAH4 peptides (Liu et al., Molecular Therapy, 2014); type: cell-based, human; conditions: 200 μM, GFP-positive cells
HepG2 cells [3] = conditions: AAV-2, HepG2, Liu et al., cited from earlier work
HUVEC cell lines = test: Cytotoxicity of AAV-CPP complexes, XTT assay; type: cell-based; conditions: CPP concentration of 500 μM, AAV-6-βGal MOI of 300, XTT after 2 days
Method: The cytoxicity of the AAV-CPP complexes was evaluated on HUVEC cell lines. AAV encoding beta galactosidase (AAV-6-βGal) at MOI of 300 were preincubated in PBS with increasing concentration of CPPs ranging from 1 to 500 μM for 30 min. Cells were treated with either free AAV (No CPP) or CPP/AAV complexes for 4 h, then the medium was replaced with fresh medium. Cytotoxicity of AAV-CPP complexes was determined using the XTT assay after 2 days. […] A low cytotoxicity of 5% for PEP-1 and PEP-2 and 8% for Pant were obtained for a CPP concentration of 500 μM.

HepG2 and HCN2 cells [4] = test: AAV-6-GFP transduction with CPPs, statements for both cell lines; type: cell-based, human
Method: (§1) In this example different AAV serotypes including AAV 1, AAV2, AAV5, AAV6, AAV8 and AAV9 were tested against human hepatocytes (HepG2) and human neuronal cells (HCN2) in the presence or in the absence of CPPs including ADGN-103a, ADGN-103b, ADGN-100, ADGN-109, ADGN-106, PEP-1, PEP-2, CADY, and TAT-HA2.
(§2) AAV-1, AAV-2, AAV-5, and AAV-6 viruses encoding green fluorescent protein were obtained from Cell Biolabs Inc and AAV-8 from Vector Biolabs. Stock solutions of virus were obtained at 1χ10^13 GC/ml in PBS/0.01% and diluted 50-fold to 2×10^11 GC/ml before use.
(§3) AAV-1, AAV-2, AAV-5, and AAV6 encoding green fluorescent protein were used at low MOI of 500 (1-2×10^7 PFU) and AAV-8 at MOI of 1000 (2-4×10^7 PFU). HepG2 and HCN2 cells (1 10^6 cells per well) were cultured in a 24 well plate culture dish format. For MOI of 1000, 5 μl of AAV virus diluted solutions were preincubated in PBS with increasing concentration of CPPs ranging from 0.1 to 200 μM for 30 min. For MOI of 500, 2.5 μl of AAV virus diluted solutions were preincubated in PBS with increasing concentration of CPPs ranging from 0.1 to 200 μM for 30 min. 200 μl of AAV or CPP/AAV complex solutions were added to cultured cells (1×10^6 cells per well). Cells are treated with either free AAV or CPP/AAV complexes for 4 h. and then the medium is replaced with fresh medium.
(§4) Viral mediated transgene expression was monitored by flow cytomety 2 days post-infection in HepG2 and Human neuronal HCN2. The percentage of GFP expressing cells were detected by flow cytometry and the increase of AAV infectivity was calculated based on the number of GFP-positive cells. Results are reported in FIGS. 5A-5D, 6A-6D, 7A-7D, 8A-8D, and 9A-9D.

HepG2 and HCN2 cells [5] = test: AAV-2-GFP transduction with CPPs, statements for both cell lines; type: cell-based, human
Method: as §1, §2, §3, §4

HCN2 cells [6] = test: AAV-8-GFP transduction with CPPs, flow cytometry; type: cell-based, human; conditions: 200 μM CPP, AAV-8 MOI of 1000, HCN2; 5% in the absence of CPP
Method: as §1, §2, §3, §4

HepG2 cells [7] = test: AAV-8-GFP transduction with CPPs, flow cytometry; type: cell-based, human; conditions: 200 μM CPP, AAV-8 MOI of 1000, HepG2; 5% in the absence of CPP
Method: as §1, §2, §3, §4

HCN2 cells [8] = test: AAV-2-GFP transduction with CPPs, flow cytometry; type: cell-based, human; conditions: 200 μM CPP; for cells expressing GFP: AAV-2 MOI of 500, HCN2, 4% in the absence of CPP; for increase of AAV-2 efficiency: MOI of 500, HCN2
Method: as §1, §2, §3, §4

HepG2 cells [9] = test: AAV-2-GFP transduction with CPPs, flow cytometry; type: cell-based, human; conditions: 200 μM CPP; for cells expressing GFP: AAV-2 MOI of 500, HepG2, 4% in the absence of CPP; for increase of AAV-2 efficiency: MOI of 500, HepG2
Method: as §1, §2, §3, §4

HepG2 and HCN2 cells [10] = test: AAV-8-GFP transduction with CPPs, statements for both cell lines; type: cell-based, human
Method: as §1, §2, §3, §4

HCN2 cells [11] = test: AAV-5-GFP transduction with CPPs, flow cytometry; type: cell-based, human; conditions: 200 μM CPP; for cells expressing GFP: AAV-5 MOI of 500, HCN2, 5% in the absence of CPP; for increase of AAV-5 efficiency: MOI of 500, HCN2
Method: as §1, §2, §3, §4

HepG2 cells [12] = test: AAV-5-GFP transduction with CPPs, flow cytometry; type: cell-based, human; conditions: 200 μM CPP; for cells expressing GFP: AAV-5 MOI of 500, HepG2, 5% in the absence of CPP; for increase of AAV-5 efficiency: MOI of 500, HepG2
Method: as §1, §2, §3, §4

HepG2 and HCN2 cells [13] = test: AAV-1-GFP transduction with CPPs, statements for both cell lines; type: cell-based, human
Method: as §1, §2, §3, §4

HCN2 cells [14] = test: AAV-6-GFP transduction with CPPs, flow cytometry; type: cell-based, human; conditions: for increase of AAV-6 efficiency: 200 μM CPP, MOI of 500, HCN2; for cells expressing GFP: 200 μM of CPP, AAV-6 MOI of 500, HCN2, 4% in the absence of CPP
Method: as §1, §2, §3, §4

HepG2 cells [15] = test: AAV-6-GFP transduction with CPPs, flow cytometry; type: cell-based, human; conditions: 200 μM CPP; for cells expressing GFP: AAV-6 MOI of 500, HepG2, 5% in the absence of CPP; for increase of AAV-6 efficiency: MOI of 500, HepG2
Method: as §1, §2, §3, §4

HepG2 and HCN2 cells [16] = test: AAV-5-GFP transduction with CPPs, statements for both cell lines; type: cell-based, human
Method: as §1, §2, §3, §4

HCN2 cells [17] = test: AAV-1-GFP transduction with CPPs, flow cytometry; type: cell-based, human; conditions: 200 μM CPP; for cells expressing GFP: AAV-1 MOI of 500, HCN2, 5% in the absence of CPP; for increase of AAV-1 efficiency: MOI of 500, HCN2
Method: as §1, §2, §3, §4

HepG2 cells [18] = test: AAV-1-GFP transduction with CPPs, flow cytometry; type: cell-based, human; conditions: 200 μM CPP; for cells expressing GFP: AAV-1 MOI of 500, HepG2, 5% in the absence of CPP
Method: as §1, §2, §3, §4

[19] = molecular target: Adeno-associated virus AAV-2 encoding green fluorescent protein (adeno-associated virus serotype 2) (UniProt P03135); test: cell-based or functional assay; remark: listed apart in the source
[20] = 200 μM concentration of peptide
[21] = 1 μM concentration, both cell lines

Molecule: PEP-1-PEG (peptide)
- efficacy (GFP expressing 293 T cells) after incubation of the complexes in 50% serum [1]: 30 % reduction

Molecule: PEP-1-DOPA (peptide)
- efficacy (GFP expressing 293 T cells) after incubation of the complexes in 50% serum [1]: 30 % reduction

Molecule: KKALLALALHHLAHLALHLALALKKAC [LAH4, a leucine- and histidine-rich peptide]
- fold lower than the results obtained with the ADGN peptides (HepG2 cells [2]): 2 fold
- GFP-positive cells (HepG2 cells [3]; [20]): ~45%
- GFP-positive cells (HepG2 cells [3]; concentration of CPPs): 12%

Molecule: CC(=O)N[C@@H](CCCCN)C(=O)N[C@@H](CCC(=O)O)C(=O)N[C@H](C(=O)N[C@@H](Cc1c[nH]c2ccccc12)C(=O)N[C@@H](Cc1c[nH]c2ccccc12)C(=O)N[C@@H](CCC(=O)O)C(=O)N[C@H](C(=O)N[C@@H](Cc1c[nH]c2ccccc12)C(=O)N[C@@H](Cc1c[nH]c2ccccc12)C(=O)N[C@H](C(=O)N[C@@H](CCC(=O)O)C(=O)N[C@@H](Cc1c[nH]c2ccccc12)C(=O)N[C@@H](CO)C(=O)N[C@@H](CCC(N)=O)C(=O)N1CCC[C@H]1C(=O)N[C@@H](CCCCN)C(=O)N[C@@H](CCCCN)C(=O)N[C@@H](CCCCN)C(=O)N[C@@H](CCCNC(=N)N)C(=O)N[C@@H](CCCCN)C(=O)N[C@H](C(=O)NCCS)C(C)C)[C@@H](C)O)[C@@H](C)O)[C@@H](C)O [PEP-1] (Ac-KETWWETWWTEWSQPKKKRKV-Cysteamide)
- cytotoxicity (HUVEC cell lines): 5%

Molecule: CC(=O)N[C@@H](CCCCN)C(=O)N[C@@H](CCC(=O)O)C(=O)N[C@H](C(=O)N[C@@H](Cc1c[nH]c2ccccc12)C(=O)N[C@@H](Cc1ccccc1)C(=O)N[C@@H](CCC(=O)O)C(=O)N[C@H](C(=O)N[C@@H](Cc1c[nH]c2ccccc12)C(=O)N[C@@H](Cc1ccccc1)C(=O)N[C@H](C(=O)N[C@@H](CCC(=O)O)C(=O)N[C@@H](Cc1c[nH]c2ccccc12)C(=O)N[C@@H](CO)C(=O)N[C@@H](CCC(N)=O)C(=O)N1CCC[C@H]1C(=O)N[C@@H](CCCCN)C(=O)N[C@@H](CCCCN)C(=O)N[C@@H](CCCCN)C(=O)N[C@@H](CCCNC(=N)N)C(=O)N[C@@H](CCCCN)C(=O)N[C@H](C(=O)NCCS)C(C)C)[C@@H](C)O)[C@@H](C)O)[C@@H](C)O [PEP-2] (Ac-KETWFETWFTEWSQPKKKRKV-Cysteamide)
- cytotoxicity (HUVEC cell lines): 5%

Molecule: βAKWRSAGWRWRLWRVRSWSR (not fully specified (residue 1, N-terminus); printed as βAKWRSAGWRWRLWRVRSWSR) [ADGN-100]
- impact on AAV-6 infectivity (HepG2 and HCN2 cells [4]; [21]): significant impact
- share of the final improvement obtained at 200 μM (HepG2 and HCN2 cells [4]; 10 μM concentration, AAV-6, both cell lines): about 70%
- impact on AAV-2 infectivity (HepG2 and HCN2 cells [5]; [21]): significant impact
- share of the final improvement obtained with 200 μM (HepG2 and HCN2 cells [5]; 10 μM concentration of CPP, AAV-2, both cell lines): about 70%
- cells expressing GFP (HCN2 cells [6]): 23%
- cells expressing GFP (HepG2 cells [7]): 26%
- cells expressing GFP (HCN2 cells [8]): 59%
- increase of AAV-2 efficiency (HCN2 cells [8]): 15 fold
- cells expressing GFP (HepG2 cells [9]): 57%
- increase of AAV-2 efficiency (HepG2 cells [9]): 20 fold
- impact on AAV-8 infectivity (HepG2 and HCN2 cells [10]; [21]): significant impact
- share of the final improvement obtained at 200 μM (HepG2 and HCN2 cells [10]; 10 μM concentration, AAV-8, both cell lines): about 60%
- cells expressing GFP (HCN2 cells [11]): 22%
- increase of AAV-5 efficiency (HCN2 cells [11]): 5 fold
- cells expressing GFP (HepG2 cells [12]): 39%
- increase of AAV-5 efficiency (HepG2 cells [12]): 10 fold
- impact on AAV-1 infectivity (HepG2 and HCN2 cells [13]; [21]): significant impact
- share of the final improvement obtained with 200 μM (HepG2 and HCN2 cells [13]; 10 μM concentration of CPP, AAV-1, both cell lines): about 60%
- increase of AAV-6 efficiency (HCN2 cells [14]): 15 fold
- cells expressing GFP (HCN2 cells [14]): 48%
- cells expressing GFP (HepG2 cells [15]): 59%
- increase of AAV-6 efficiency (HepG2 cells [15]): 17 fold
- impact on AAV-5 infectivity (HepG2 and HCN2 cells [16]; [21]): significant impact
- share of the final improvement obtained at 200 μM (HepG2 and HCN2 cells [16]; 10 μM concentration, AAV-5, both cell lines): about 50%
- cells expressing GFP (HCN2 cells [17]): 52%
- increase of AAV-1 efficiency (HCN2 cells [17]): 12 fold
- cells expressing GFP (HepG2 cells [18]): 50%
- increase of AAV-1 efficiency (HepG2 cells [18]; MOI of 500, HepG2): 13 fold

Molecule: CRRRQRRKKRGGDIMGEWGNEIFGAIAGFLG [TAT-HA2, reference compound]
- cells expressing GFP (HCN2 cells [6]): 12%
- cells expressing GFP (HepG2 cells [7]): 15%
- cells expressing GFP (HCN2 cells [8]): 20%
- increase of AAV-2 efficiency (HCN2 cells [8]): 3 fold
- cells expressing GFP (HepG2 cells [9]): 23%
- increase of AAV-2 efficiency (HepG2 cells [9]): 5 fold
- fold lower than the results obtained with the ADGN peptides (HepG2 cells [2]): 4 fold
- GFP-positive cells (HepG2 cells [3]; [20]): about 25%
- GFP-positive cells (HepG2 cells [3]; concentration of CPPs): 12%
- cells expressing GFP (HCN2 cells [11]): 10%
- increase of AAV-5 efficiency (HCN2 cells [11]): 2 fold
- cells expressing GFP (HepG2 cells [12]): 11%
- increase of AAV-5 efficiency (HepG2 cells [12]): 3 fold
- increase of AAV-6 efficiency (HCN2 cells [14]): 3 fold
- cells expressing GFP (HCN2 cells [14]): 22%
- cells expressing GFP (HepG2 cells [15]): 35%
- increase of AAV-6 efficiency (HepG2 cells [15]): about 10 fold
- cells expressing GFP (HCN2 cells [17]): 22%
- increase of AAV-1 efficiency (HCN2 cells [17]): 3 fold
- cells expressing GFP (HepG2 cells [18]): 27%

Molecule: KETWWETWWTEWSQPKKKRKV (not fully specified (N-terminus, C-terminus)) [PEP-1 (N-acetylated, C-terminal cysteamide; Example 5)]
- level of GFP expressing cells (293 T cells, flow cytometry) after 1 h incubation of the complexes in 20% serum [19]: 60 % reduction
- level of GFP expressing cells (293 T cells, flow cytometry) after 1 h incubation of the complexes in 50% serum [19]: 80 % reduction
